Experimental data as given in patent US7511145B2 (Genelabs Technologies, Inc., priority 2003, dated 2009).

Target: T1, HCV-NS5b (Hepatitis C virus genotype 1b, UniProt Q9WMX2)
T1 construct: (His)6 (C); made in house; host or cells: XL-1 cells (E. coli), IPTG-inducible plasmid, nickel-NTA purification
Test: HCV-NS5b enzyme assay (incorporation of radiolabeled UTP)
Type: biochemical
Conditions: for inhibition at 33 µM: enzyme inhibition at compound concentration of 33 uM; for inhibition at 100 µM: read-out: % inh@100, enzyme inhibition at compound concentration of 100 uM
From the text: The coding sequence of NS5b protein was cloned by PCR from pFKI389luc/NS3-3′/ET as described by Lohmann, V., et al. (1999) Science 285, 110-113 using the following primers: […]
The cloned fragment was missing the C terminus 21 amino acid residues. The cloned fragment was inserted into an IPTG-inducible expression plasmid that provided an epitope tag (His)6 at the carboxy terminus of the protein.
The recombinant enzyme was expressed in XL-1 cells and after induction of expression, the protein was purified using affinity chromatography on a nickel-NTA column. Storage condition was 10 mM Tris-HCl pH 7.5, 50 mM NaCl, 0.1 mM EDTA, 1 mM DTT, 20% glycerol at −20° C.
The polymerase activity was assayed by measuring incorporation of radiolabeled UTP into a RNA product using a biotinylated, heteropolymeric template, which included a portion of the HCV genome. Typically, the assay mixture (50 μL) contained 10 mM Tris-HCl (pH 7.5), 5 mM MgCl2, 0.2 mM EDTA, 10 mM KCl, 1 unit/μL RNAsin, 1 mM DTT, 10 μM each of NTP, including [^3H]-UTP, and 10 ng/μL heteropolymeric template. Test compounds were initially dissolved in 100% DMSO and further diluted in aqueous buffer containing 5% DMSO. Typically, compounds were tested at concentrations between 1 nM and 100 μM. Reactions were started with addition of enzyme and allowed to continue at 37° C. for 2 hours. Reactions were quenched with 8 μL of 100 mM EDTA and reaction mixtures (30 μL) were transferred to streptavidin-coated scintillation proximity microtiter plates (FlashPlates) and incubated at 4° C. overnight. Incorporation of radioactivity was determined by scintillation counting.
Shown in Table IX below are the values for enzyme inhibition measured at compound concentrations of 100 and 33 uM, (% inh@[…] and % inh@33, respectively). The percent inhibition values are calculated from the differential incorporation of radioactivity compared to a control reaction without compound: % inhibition=100−[(CountsINH−CountsBKG)/CountsCTRL−CountsBKG)×100 where CountsINH is the signal of the testwell with inhibitor, CountsBKG is the background signal and CountsCTRL is the signal of a testwell without inhibitor.

| SMILES | inhibition at 33 µM [%] | inhibition at 100 µM [%] |
| --- | --- | --- |
| COc1ccc(-c2cccc(C)c2)c(-c2ccc3cc(-c4nc5cc(C(=O)O)ccc5n4C4CCCCC4)ccc3n2)c1 [Compound 367, 1-cyclohexyl-2-[2-(4-methoxy-3′-methyl-biphen-2-yl)-quinolin-6-yl]-1H-benzoimidazole-5-carboxylic acid] | 103 | 101 |
| NC(=O)[C@H](Cc1cnc[nH]1)NC(=O)c1ccc2cc(-c3nc4cc(C(=O)O)ccc4n3C3CCCCC3)ccc2n1 [Compound 368] | 51.2 | 79.5 |
| O=C(O)c1ccc2c(c1)nc(-c1ccc3nc(-c4ccccc4-c4ccncc4)ccc3c1)n2C1CCCCC1 [Compound 369, 1-Cyclohexyl-2-[2-(2-pyrid-4-yl-phenyl)-quinolin-6-yl]-1H-benzoimidazole-5-carboxylic acid] | 96.2 | 98.8 |
| O=C(O)c1ccc2c(c1)nc(-c1ccc3nc(-c4cccc(C(=O)N5CCCC5)c4)ccc3c1)n2C1CCCCC1 [Compound 370, 1-Cyclohexyl-2-{2-[3-(pyrrolidine-1-carbonyl)-phenyl]-quinolin-6-yl}-1H-benzoimidazole-5-carboxylic acid] | 97.8 | 99.7 |
| Nc1ccc(-c2ccc3cc(-c4nc5cc(C(=O)O)ccc5n4C4CCCCC4)ccc3n2)cc1Br [Compound 372, 2-[2-(4-amino-3-bromo-phenyl)-quinolin-6-yl]-1-cyclohexyl-1H-benzoimidazole-5-carboxylic acid] | 98.1 | 98.2 |
| O=C(O)c1ccc2c(c1)nc(-c1ccc3[nH]c(-c4ccccc4)cc(=O)c3c1)n2C1CCCCC1 [Compound 373, 1-cyclohexyl-2-(4-oxo-2-phenyl-1,4-dihydro-quinolin-6-yl)-1H-benzoimidazole-5-carboxylic acid] | 39.9 | 83.8 |
| NC(=O)c1cc(-c2ccc3cc(-c4nc5cc(C(=O)O)ccc5n4C4CCCCC4)ccc3n2)ccc1O [Compound 374, 2-[2-(3-carbamoyl-4-hydroxy-phenyl)-quinolin-6-yl]-1-cyclohexyl-1H-benzoimidazole-5-carboxylic acid] | 97.6 | 98.3 |
| O=C(O)c1ccc2c(c1)nc(-c1ccc3nc(-c4cc(OCC(=O)N5CCCC5)ccc4-c4ccc(Cl)cc4)ccc3c1)n2C1CCCCC1 [Compound 376, 2-{2-[4′-Chloro-4-(2-oxo-2-pyrrolidin-1-yl-ethoxy)-biphen-2-yl]-quinolin-6-yl}-1-cyclohexyl-1H-benzoimidazole-5-carboxylic acid] | 97.4 | 97.2 |
| NC(=O)CNC(=O)c1ccc(-c2ccccc2)c(-c2ccc3cc(-c4nc5cc(C(=O)O)ccc5n4C4CCCCC4)ccc3n2)c1 [Compound 377, 2-{2-[4-(Carbamoylmethyl-carbamoyl)-biphen-2-yl]-quinolin-6-yl}-1-cyclohexyl-1H-benzoimidazole-5-carboxylic acid] | 99.2 | 99.4 |
| CNC(=O)c1ccc(-c2ccc(Cl)cc2)c(-c2ccc3cc(-c4nc5cc(C(=O)O)ccc5n4C4CCCCC4)ccc3n2)c1 [Compound 378, 2-[2-(4′-chloro-4-methylcarbamoyl-biphen-2-yl)-quinolin-6-yl]-1-cyclohexyl-1H-benzoimidazole-5-carboxylic acid] | 100 | 101 |
| Cc1cc(-c2nc3cc(C(=O)O)ccc3n2C2CCCCC2)cc2ccc(-c3ccccc3-c3ccccc3)nc12 [Compound 379, 2-(2-Biphen-2-yl-8-methyl-quinolin-6-yl)-1-cyclohexyl-1H-benzoimidazole-5-carboxylic acid] | 93.3 | 97.8 |
| O=C(O)c1ccc2c(c1)nc(-c1ccc3nc(-c4ccccc4)cc(Nc4ccc(Cl)cc4)c3c1)n2C1CCCCC1 [Compound 380, 2-[4-(4-chloro-phenylamino)-2-phenyl-quinolin-6-yl]-1-cyclohexyl-1H-benzoimidazole-5-carboxylic acid] | 97.6 | 101 |
| O=C(O)c1ccc2c(c1)nc(-c1ccc3nc(-c4cc(O)cc(O)c4)ccc3c1)n2C1CCCCC1 [Compound 381, 1-cyclohexyl-2-[2-(3,5-dihydroxy-phenyl)-quinolin-6-yl]-1H-benzoimidazole-5-carboxylic acid] | 94.3 | 98 |
| COc1ccc(-c2ccc(C(N)=O)cc2)c(-c2ccc3cc(-c4nc5cc(C(=O)O)ccc5n4C4CCCCC4)ccc3n2)c1 [Compound 382, 2-[2-(4′-carbamoyl-4-methoxy-biphen-2-yl)-quinolin-6-yl]-1-cyclohexyl-1H-benzoimidazole-5-carboxylic acid] | 101 | 101 |
| COc1ccc(-c2ccc(CN)cc2)c(-c2ccc3cc(-c4nc5cc(C(=O)O)ccc5n4C4CCCCC4)ccc3n2)c1 [Compound 384, 2-[2-(4′-aminomethyl-4-methoxy-biphen-2-yl)-quinolin-6-yl]-1-cyclohexyl-1H-benzoimidazole-5-carboxylic acid] | 95.5 | 99.3 |
| NC(=O)[C@H](CO)NC(=O)c1ccc2cc(-c3nc4cc(C(=O)O)ccc4n3C3CCCCC3)ccc2n1 [Compound 385, 2-[2-(1-Carbamoyl-2-hydroxyethylcarbamoyl)quinolin-6-yl]-1-cyclohexyl-1H-benzimidazole-5-carboxylic acid] | 42.6 | 76.2 |
| O=C(O)c1ccc2c(c1)nc(-c1ccc3nc(-c4ccccc4)c(-c4ccccc4)cc3c1)n2C1CCCCC1 [Compound 386, 1-cyclohexyl-2-(2,3-diphenyl-quinolin-6-yl)-1H-benzoimidazole-5-carboxylic acid] | 100 | 99.9 |
| O=C(O)c1ccc2c(c1)nc(-c1ccc3nc(-c4ccccc4-c4ccc(Cl)cc4)ccc3c1)n2C1CCCCC1 [Compound 387, 2-[2-(4′-Chloro-biphen-2-yl)-quinolin-6-yl]-1-cyclohexyl-1H-benzoimidazole-5-carboxylic acid] | 99 | 98.7 |
| O=C(O)c1ccc2c(c1)nc(-c1cc3ccc(-c4ccccc4-c4ccccc4)nc3cc1F)n2C1CCCCC1 [Compound 388, 2-(2-Biphen-2-yl-7-fluoro-quinolin-6-yl)-1-cyclohexyl-1H-benzoimidazole-5-carboxylic acid] | 98.7 | 98.6 |
| Cc1ccc(-c2nc3ccc(-c4nc5cc(C(=O)O)ccc5n4C4CCCCC4)cc3nc2-c2ccc(C)cc2)cc1 [Compound 389, 1-Cyclohexyl-2-(2,3-di-p-tolylquinoxalin-6-yl)-1H-benzimidazole-5-carboxylic acid] | 99.9 | 99.5 |
| O=C(O)c1ccc2c(c1)nc(-c1ccc3nc(-c4ccc(-c5ccccc5)cc4)ccc3c1)n2C1CCCCC1 [Compound 390, 2-(2-biphenyl-4-yl-quinolin-6-yl)-1-cyclohexyl-1H-benzoimidazole-5-carboxylic acid] | 79.9 | 92.5 |
| Cc1nc(N)sc1-c1ccc2cc(-c3nc4cc(C(=O)O)ccc4n3C3CCCCC3)ccc2n1 [Compound 391] | 94.1 | 97.5 |
| O=C(O)c1ccc2c(c1)nc(-c1ccc3nc(CCCO)ccc3c1)n2C1CCCCC1 [Compound 392, 1-Cyclohexyl-2-[2-(3-hydroxy-propyl)-quinolin-6-yl]-1H-benzoimidazole-5-carboxylic acid] | 83.8 | 93.5 |
| O=C(O)COc1ccc(-c2ccc(Cl)cc2)c(-c2ccc3cc(-c4nc5cc(C(=O)O)ccc5n4C4CCCCC4)ccc3n2)c1 [Compound 393, 2-[2-(4-Carboxymethoxy-4′-chloro-biphen-2-yl)-quinolin-6-yl]-1-cyclohexyl-1H-benzoimidazole-5-carboxylic acid] | 97.6 | 96.9 |
| COc1cc(Br)c2oc(-c3ccc4cc(-c5nc6cc(C(=O)O)ccc6n5C5CCCCC5)ccc4n3)cc2c1 [Compound 394, 2-[2-(7-bromo-5-methoxy-benzofuran-2-yl)-quinolin-6-yl]-1-cyclohexyl-1H-benzoimidazole-5-carboxylic acid] | 98.9 | 100 |
| O=C(O)c1ccc2c(c1)nc(-c1ccc3nc(-c4ccccc4-c4ccccc4)ccc3c1)n2C1CCCCC1 [Compound 395, 2-(2-biphen-2-yl-quinolin-6-yl)-1-cyclohexyl-1H-benzoimidazole-5-carboxylic acid] | 100 | 101 |
